What was measured:
[1] = literature; cited from earlier work
[2] = test system: trypsin, plasmin and kallikrein; conditions: literature, inhibiting trypsin; cited from earlier work
[3] = literature; cited from earlier work; remark: listed apart in the source
[4] = test system: thrombotic occlusion of the carotid artery; assay: Rat model of FeCl3-induced platelet-dependent arterial thrombosis; format: in vivo; conditions: dose that prevents complete thrombotic occlusion in 50% of animals tested, read-out: ED50 for thrombus prevention in the FeCl3 model of arterial thrombosis
Protocol: The antithrombotic (prevention of thrombus formation) properties of compounds of the present invention are evaluated using the following established experimental model of acute vascular thrombosis which is a rat model of FeCl3 -induced platelet-dependent arterial thrombosis.
This is a well characterized model of platelet dependent, arterial thrombosis which has been used in the evaluation potential antithrombotic compounds such as direct thrombin inhibitors. See, Kurz, K. D., Main, B. W., and Sandusky, G. E., Thromb. Res., 60: 269-280 (1990). In this model a platelet-rich, occlusive thrombus is formed in a segment of the rat carotid artery treated locally with a fresh solution of FeCl3 absorbed to a piece of filter paper. […] The effect of a test compound on the incidence of occlusive thrombus formation following the application of the […] is monitored by ultrasonic flowtometry and is used as the primary end point. […]
Following surgery the animals are randomized in either a control (saline) or treatment group with test compound, with at least 6 animals per group per dose. […] Blood pressure, blood flow, heart rate, and respiration are monitored for 60 minutes.
The incidence of occlusion (defined as the attainment of zero blood flow) is recorded as the primary end point. […]

N=C(N)c1ccc(CC(=O)C(=O)O)cc1 [APPA, 4-amidinophenylpyruvic acid]
toxicity, in words [1]: low toxicity | selectivity, in words [2]: non-selective, inhibiting trypsin, plasmin and kallikrein | pharmacokinetics, in words [3]: favourable pharmacokinetics

CC1CNc2c(cccc2S(=O)(=O)N[C@@H](CCCNC(=N)N)C(=O)N2CC[C@@H](C)C[C@@H]2C(=O)O)C1 (stereo partly drawn) [Argatroban, 2R,4R-4-methyl-1-[N-2-(3-methyl-1,2,3,4-tetrahydro-8-quinolinesulfonyl)-L-argininy]-2-piperdinecarboxylic acid]
ED50 [4]: 3.8 mg/kg

— patent US6204384A, “Substituted 3-amino-2-hydroxyphenylacetamide derivatives as enzyme inhibitors (II)” (Corvas International, Inc., priority 1997, dated 2001)
